# Experimental data: US20150133341A1, “Intra-Operative Cancer Diagnosis Based on a Hyperpolarized Marker” (ALBEDA INNOVATIONS APS, priority 2012, published 2015)
# Target: T1, CE-2 in lysed human breast cancer cells (MCF-7) (Homo sapiens, UniProt O00748)
# T1 construct: endogenous in cells; host or cells: MCF-7 (sonicated lysate)
# T1 sequence (O00748 27-559): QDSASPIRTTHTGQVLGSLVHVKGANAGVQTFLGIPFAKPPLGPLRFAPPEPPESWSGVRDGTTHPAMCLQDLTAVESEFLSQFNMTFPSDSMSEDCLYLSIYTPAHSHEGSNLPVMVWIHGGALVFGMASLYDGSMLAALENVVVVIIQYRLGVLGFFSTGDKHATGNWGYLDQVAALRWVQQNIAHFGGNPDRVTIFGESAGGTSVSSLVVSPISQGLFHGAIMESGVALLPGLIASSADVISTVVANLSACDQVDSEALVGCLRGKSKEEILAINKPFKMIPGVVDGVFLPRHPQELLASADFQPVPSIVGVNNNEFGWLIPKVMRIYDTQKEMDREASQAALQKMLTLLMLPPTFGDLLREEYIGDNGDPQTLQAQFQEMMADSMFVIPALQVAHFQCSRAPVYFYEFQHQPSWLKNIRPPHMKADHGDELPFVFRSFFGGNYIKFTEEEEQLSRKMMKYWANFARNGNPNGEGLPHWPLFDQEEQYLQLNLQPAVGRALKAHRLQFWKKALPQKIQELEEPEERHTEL
# Test: CE-2 activity on acetate esters in lysed MCF-7 cells, 1H NMR
# Format: biochemical
# Conditions: for k: 5 million lysed MCF-7 cells
# Protocol: Different classes of short chain esters, fulfilling the requirements for the hyperpolarization technique (stable, soluble, low molecular weight compounds (<400 Da), were evaluated as substrates for carboxyl esterases with the aim to identify esters as similar or better substrates for carboxyl esterases than 1,3-^13C2 ethyl acetoacetate. In most human cell types, including a wide range of cancer cells and lymphocytes, the activity of carboxyl esterase is dominated by the activities of isoforms 1 and 2 (CE-1 and CE-2). To measure exclusively the hydrolysis of carboxyl esterase from the CE-1 isoform, an isolated enzyme from porcine liver was applied. To measure almost exclusively the contribution of carboxyl esterase activity from the CE-2 isoform, human breast cancer cells (MCF-7) were employed. These cells are known from literature to express CE-2 but not to express CE-1 (Byun et al, 2008, Cancer letters 266:238-48). A group of esters was investigated as substrates for CE-1, which contained different structural features. […] Also esters with large alcohol groups and small acid groups were investigated. In this group, the acid part of the molecule was always acetate and different structural properties of the alcohol were investigated. These consisted of esters of un-substituted alcohols (examples ethyl acetate and butyl acetate), esters of branched chain alcohols (examples t-butyl acetate, ethyl 3-acetoxy butanoate and 2-acetoxy propionate), esters of aromatic alcohols (example benzyl acetate), esters of diols (example ethyleneglycol diacetate), esters of triols (example triacetin). Esters of alpha-keto acids were too unstable to be investigated in this assay. Esters of larger alcohols are not water soluble and therefore not relevant substrates for the purpose of the invention. Similarly, a group of esters which contained different structural features was investigated as substrates for CE-2. CE-2 substrates are described in the literature to consist of a small acid group and a larger alcohol group. All included esters were acetate esters (i.e. esters of acetic acid) in the interest of keeping the acid moiety the smallest possible. The acetate esters measured for CE-2 activity were therefore the same as those measured in the second group of possible substrates for CE-1. The CE-2 experiments were performed with lysed breast cancer cells (MCF-7). MCF-7 cells were grown in RPMI medium with 10% FBS and antibiotics. They were at confluence harvested by trypsination and washed once with 5 ml PBS. They were spun down and resuspended in PBS to a concentration of 20 mill. cells/ml. The cells were hereafter sonicated on ice (50% amplitude, 1 min, 3 sec pulse). 250 μl sonicated cell suspension was mixed with 250 μl 400 mM phosphate buffer pH 7.3. […] The substrate was added (50 μl, 60 mM) and the tube turned for mixing before it was inserted into the spectrometer. An initial spectrum was acquired and the sample was hereafter placed at 37° C. for 1 hour in a water bath. The sample was again inserted into the magnet and a second spectrum was recorded. The data was analysed with MNOVA software and measured as percentage conversion of substrate calculated to account for the amount of substrate converted over 60 min. The numbers are given in μmol/hour.
SMILES,"k (37° C., 1 hour) [µmol/min]","hydrolysis by CE-2, in words (lysed MCF-7 cells)","k (μmol/min), acetate ester (hydrolysis of the acetate ester function, lysed MCF-7 cells, 37° C., 1 hour) [µmol/min]","hydrolysis by CE-2, in words (lysed MCF-7 cells, listed as benzyl acetate)"
CC(=O)OCC(COC(C)=O)OC(C)=O [Tri-acetin],0.27,hydrolysed to a similar extent,,
CCOC(=O)CC(C)OC(C)=O (stereo not shown) [ethyl 3-acetoxy butanoate],,hydrolysed to a similar extent,0.18,
CC(=O)OCc1ccccc1 [Benzyl acetate],1.05,hydrolysed particularly fast,,the best
